Data reported in publication PMC11210122, “Synthesis, biological evaluation, and molecular docking of novel 1,3,4-substituted-thiadiazole derivatives as potential anticancer agent” (BMC Chemistry, 2024).
Read-outs that look alike come from different tables or passages of the source.

Experiments:
[1] = system: pseudo-normal human embryonic liver cell line (L02); test: MTT assay, pseudo-normal L02 cells; type: cell-based; conditions: L02, 100 µM, mean ± SD of three independent experiments
Protocol: (§1) Methods for in vitro anti-proliferative assay [Cell lines]: In the current investigation, hepatocellular carcinoma cell lines (HEPG-2), human lung carcinoma (A549) and human breast carcinoma cell line (MCF-7) and pseudo-normal human embryonic liver cellline (L02) were used for antiproliferative activity, the cell lines were obtained from NCL, Pune. The growth medium used is the DMEM (Dulbecco's modified Eagle's growth medium) having 10% FBS (fetal bovine serum), 10 µg/ml of insulin (Sigma) and 1% penicillin/streptomycin. The used reagents and chemicals were purchased from Sigma or Invitrogen. 100 µl of each compound was added to cells with density of 1.2 – 1.8 × 10,000 cells/well containing 100 µl growth medium in a 96-well plate for 24 h previous to performing the MTT assay.
(§2) MTT assay: MTT (3-[4,5-dimethylthiazole-2-yl]-2,5-diphenyltetrazolium bromide) was used to determine the anti-proliferative activity. Cells were incubated in a moist environment for 24 hours at 37℃. The cells were then treated with various concentrations of the studied substances (0.01, 0.1, 1.0, 10, 50, 100 µM). The media was removed, and the cells were treated for 2 hours with a 5% MTT ([…]) solution/well, allowing the dye to metabolize to colored-insoluble formazan crystals. The remaining solution was discarded and acidified isopropanol was then added for around 30 minutes to dissolve the formazan crystals, which were encased in aluminum foil at room temperature. The absorbance of each well was measured at 450 nm using an Elisa reader. The cell viability was expressed as a percentage of control, and the GI50 was calculated using Graph Pad Prism program (Graph Pad software Inc, CA).

[2] = system: human lung carcinoma cell line (A549); test: MTT anti-proliferative assay, A549; type: cell-based; conditions: mean ± SD of three independent experiments, read-out: Growth inhibition, GI50
Protocol: as §1, §2

[3] = system: hepatocellular carcinoma cell lines (HEPG-2); test: MTT anti-proliferative assay, HepG-2; type: cell-based, human; conditions: mean ± SD of three independent experiments, read-out: Growth inhibition, GI50
Protocol: as §1, §2

[4] = system: human breast carcinoma cell line (MCF-7); test: MTT anti-proliferative assay, MCF-7; type: cell-based; conditions: MCF7, MCF-7, MTT, mean ± SD of three independent experiments, read-out: Growth inhibition, GI50
Protocol: as §1, §2

[5] = system: breast carcinoma cell line (MCF-7); test: Annexin V-FITC/PI assay (flow cytometry); type: cell-based, human; conditions: 24 h
Protocol: The early stages of apoptosis were monitored by Annexin V-FITC (apoptotic cell marker) and PI (necrotic cell marker) double staining. The staining method was used according to the Annexin FITC/PI staining kit (Invitrogen™, Thermo Fisher Scientific Inc.). Annexin V- FITC/PI assay was performed to inspect the extent of programmed cell death (Fig. 3, apoptosis) by the compounds 4c, 4j and 8f on breast carcinoma cell line (MCF-7). The cells were treated with increasing concentrations (5–10 μM) for 24 h and analyzed by flow cytometry.
Annexin V-FITC/PI Assay: The early stages of apoptosis were monitored by Annexin V-FITC (apoptotic cell marker) and PI (necrotic cell marker) double staining. The staining method was used according to the Annexin FITC/PI staining kit (Invitrogen™, Thermo Fisher Scientific Inc.). Briefly, cells were washed in PBS twice and resuspended in 500 μl of PBS plus Annexin V-FITC and PI. For each sample at least 1×10^4 cells should be analysed using an FACS cytometer.

[6] = Homo sapiens, HepG2, HepG-2, MTT

Row | Compound | GI50 ([2]; Homo sapiens, A549, A549, MTT) [µM] | GI50 [3, 6] [µM] | GI50 [4] [µM] | GI50 ([2]; A549, MTT) [µM] | GI50 ([3]; HepG-2, MTT) [µM] | inhibition at 100 µM [1] [%] | Q3 live cells ([5]; MCF-7, 5 μM) [%] | Q3 live cells ([5]; MCF-7, 10 μM) [%] | Q2 late apoptotic cells ([5]; MCF-7, 5 μM) [%] | Q2 late apoptotic cells ([5]; MCF-7, 10 μM) [%] | Q1 necrotic cells ([5]; MCF-7, 5 μM) [%] | Q1 necrotic cells ([5]; MCF-7, 10 μM) [%]
1 | O=C(CCl)Nc1nc(-c2ccccc2)cs1 [4a] | 18.7 ± 0.41 | 12.9 ± 0.25 | 23.8 ± 0.24 |  |  | 21.6 ± 0.43 |  |  |  |  |  | 
2 | O=C(CCl)Nc1nc(-c2ccc([N+](=O)[O-])cc2)cs1 [4f] | 19.2 ± 0.32 | 18.9 ± 0.29 | 29.4 ± 0.32 |  |  | 28.16 ± 0.27 |  |  |  |  |  | 
3 | O=C(CCl)Nc1nc(-c2ccc(F)cc2)cs1 [4g] | 17.5 ± 0.26 | 22.7 ± 0.46 | 36.7 ± 0.41 |  |  | 16.3 ± 0.21 |  |  |  |  |  | 
4 | O=C(CCl)Nc1nc(-c2cccc([N+](=O)[O-])c2)cs1 [4h] | 28.6 ± 0.47 | 25.81 ± 0.23 | 38.15 ± 0.27 |  |  | 18.4 ± 0.34 |  |  |  |  |  | 
5 | O=C(CCl)Nc1nc(-c2cccc(Br)c2)cs1 [4i] | 31.4 ± 0.36 | 16 ± 0.43 | 33.74 ± 0.32 |  |  | 17.6 ± 0.38 |  |  |  |  |  | 
6 | O=C(CCl)Nc1nc(-c2cc3ccccc3oc2=O)cs1 [4k] | 25.3 ± 0.39 | 14.3 ± 0.28 | 26.4 ± 0.28 |  |  | 23 ± 0.35 |  |  |  |  |  | 
7 | CCOC(=O)c1sc(NC(=O)CCl)nc1C [4l] | 32.9 ± 0.46 | 29.8 ± 0.34 | 37.26 ± 0.37 |  |  | 26 ± 0.47 |  |  |  |  |  | 
8 | Nc1nnc(SCC(=O)Nc2nc(-c3ccccc3)cs2)s1 [8a, 2-(5-amino-1,3,4-thiadiazol-2-ylthio)-N-(4-phenylthiazol-2-yl) acetamide] | 36.2 ± 0.39 | 26.8 ± 0.28 | 34.87 ± 0.31 |  |  | 22.6 ± 0.42 |  |  |  |  |  | 
9 | Nc1nnc(SCC(=O)Nc2nc(-c3ccc(Br)cc3)cs2)s1 [8b, 2-(5-amino-1,3,4-thiadiazol-2-ylthio)-N-(4-(4-bromophenyl)thiazol-2-yl) acetamide] | 18.4 ± 0.46 | 5.86 ± 0.24 | 4.07 ± 0.19 |  |  | 15.8 ± 0.28 |  |  |  |  |  | 
10 | Cc1ccc(-c2csc(NC(=O)CSc3nnc(N)s3)n2)cc1 [8e, 2-(5-amino-1,3,4-thiadiazol-2-ylthio)-N-(4-p-tolylthiazol-2-yl) acetamide] | 29.8 ± 0.37 | 18.3 ± 0.34 | 28 ± 0.34 |  |  | 23.8 ± 0.42 |  |  |  |  |  | 

Stronger by GI50 ([2]; Homo sapiens, A549, A549, MTT), values ahead:

Row | GI50 ([2]; Homo sapiens, A549, A549, MTT) [µM] | GI50 [3, 6] [µM] | GI50 [4] [µM] | GI50 ([2]; A549, MTT) [µM] | GI50 ([3]; HepG-2, MTT) [µM] | Compound | inhibition at 100 µM [1] [%] | Q3 live cells ([5]; MCF-7, 5 μM) [%] | Q3 live cells ([5]; MCF-7, 10 μM) [%] | Q2 late apoptotic cells ([5]; MCF-7, 5 μM) [%] | Q2 late apoptotic cells ([5]; MCF-7, 10 μM) [%] | Q1 necrotic cells ([5]; MCF-7, 5 μM) [%] | Q1 necrotic cells ([5]; MCF-7, 10 μM) [%]
11 | 3.86 | 3.92 |  | 2.97 ± 0.19 | 3.62 ± 0.14 | O=C(CCl)Nc1nc(-c2ccc(Br)cc2)cs1 [4b] | 17.8 ± 0.51 |  |  |  |  |  | 
12 | 3.86 ± 0.22 | 3.92 ± 0.17 | 2.63 ± 0.14 |  |  | O=C(CCl)Nc1nc(-c2ccc(Cl)cc2)cs1 [4c] | 18.4 ± 0.48 | 62.43 | 42.19 |  |  |  | 
13 | 15.4 ± 0.23 | 8.37 ± 0.23 | 26.5 ± 0.32 |  |  | COc1ccc(-c2csc(NC(=O)CCl)n2)cc1 [4d] | 12.8 ± 0.22 |  |  |  |  |  | 
14 | 13.7 ± 0.34 | 7.28 ± 0.16 | 31.8 ± 0.46 |  |  | Cc1ccc(-c2csc(NC(=O)CCl)n2)cc1 [4e] | 15.9 ± 0.24 |  |  |  |  |  | 
15 | 2.61 ± 0.12 | 2.38 ± 0.24 | 1.82 ± 0.21 |  |  | COc1cccc(-c2csc(NC(=O)CCl)n2)c1 [4j] | 17.3 ± 0.23 | 42.81 | 32.80 | 34.84 | 40.33 |  | 
16 | 7.86 ± 0.24 | 4.12 ± 0.18 | 20.7 ± 0.36 |  |  | Nc1nnc(SCC(=O)Nc2nc(-c3ccc(Cl)cc3)cs2)s1 [8c, 2-(5-amino-1,3,4-thiadiazol-2-ylthio)-N-(4-(4-chlorophenyl)thiazol-2-yl) acetamide] | 18.2 ± 0.22 |  |  |  |  |  | 
17 | 2.85 ± 0.18 | 2.53 ± 0.1 | 2.98 ± 0.15 |  |  | COc1ccc(-c2csc(NC(=O)CSc3nnc(N)s3)n2)cc1 [8d, 2-(5-amino-1,3,4-thiadiazol-2-ylthio)-N-(4-(4-methoxyphenyl)thiazol-2-yl) acetamide] | 21.8 ± 0.38 |  |  |  |  |  | 
18 | 4.64 ± 0.23 | 3.46 ± 0.13 | 3.71 ± 0.26 |  |  | Nc1nnc(SCC(=O)Nc2nc(-c3ccc([N+](=O)[O-])cc3)cs2)s1 [8f, 2-(5-amino-1,3,4-thiadiazol-2-ylthio)-N-(4-(4-nitrophenyl)thiazol-2-yl) acetamide] | 20.6 ± 0.37 | 59.08 | 46.14 | 14.62 | 37.15 | 16.99 | 12.44
19 | 3.26 ± 0.24 | 3.87 ± 0.16 | 4.15 ± 0.18 |  |  | COc1cccc2c1C(=O)c1c(O)c3c(c(O)c1C2=O)C[C@@](O)(C(=O)CO)C[C@@H]3O[C@H]1C[C@H](N)[C@H](O)[C@H](C)O1 [doxorubicin, reference compound] | 82.2 ± 1.26 |  |  |  |  |  | 
